According to patent publication US7745422B2, “Bisphosphonate compounds and methods for bone resorption diseases, cancer, bone pain, immune disorders, and infectious diseases” (The Board of Trustees of the University of Illinois, priority 2004, dated 2010):
Where two headings read alike, the source gives them in different places.

How the values were obtained:
[1] = test system: Vγ2Vδ2 T cells; assay: gammadelta T cell stimulation (TNF-α release assay); assay type: cell-based, human
Source text: (§1) We then investigated the activity of each compound in inhibiting the FPPS from L. major, in Dictyostelium discoideum growth inhibition and in γδ T cell activation. We used the FPPS from L. major since this enzyme is the putative bisphosphonate target in several trypanosomatid species.

[2] = test system: Dictyostelium discoideum; assay: D. discoideum cell growth inhibition; assay type: cell-based
Source text: as §1

[3] = molecular target: T1, human FPPS (Homo sapiens, UniProt P14324); assay: human FPPS assay; assay type: biochemical
T1 sequence (P14324 1-419): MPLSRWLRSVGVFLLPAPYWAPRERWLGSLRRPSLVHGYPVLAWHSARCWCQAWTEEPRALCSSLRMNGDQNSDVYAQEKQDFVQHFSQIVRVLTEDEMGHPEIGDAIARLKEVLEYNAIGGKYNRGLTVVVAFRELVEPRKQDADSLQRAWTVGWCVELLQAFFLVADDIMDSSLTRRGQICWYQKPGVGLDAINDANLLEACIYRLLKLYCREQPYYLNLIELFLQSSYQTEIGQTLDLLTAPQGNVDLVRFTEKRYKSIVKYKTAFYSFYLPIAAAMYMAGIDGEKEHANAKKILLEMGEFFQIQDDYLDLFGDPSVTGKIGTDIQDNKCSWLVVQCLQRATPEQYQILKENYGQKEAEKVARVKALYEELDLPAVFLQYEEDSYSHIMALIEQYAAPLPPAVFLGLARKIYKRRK

[4] = Table 4, read-out: (3) gammadelta T cell stimulation EC50
[5] = Table 4, read-out: (1) D. discoideum IC50
[6] = Table 4, read-out: (2) human FPPS IC50
[7] = TNF-α release, Table 1 and text, read-out: gammadelta T cell stimulation, EC50
[8] = Table 3, additional testing, read-out: gammadelta T cell stimulation EC50
[9] = cell growth inhibition, Table 1 and text, read-out: D. discoideum IC50
[10] = Homo sapiens, T-cell, read-out: gammadelta T cell stimulation EC50
[11] = Dictyostelium discoideum, read-out: (1) D. discoideum IC50
[12] = Homo sapiens, T-cell, read-out: (3) gammadelta T cell stimulation EC50

| SMILES | EC50 [1, 4] | IC50 [2, 5] | other results |
| --- | --- | --- | --- |
| CC([n+]1ccccc1)C(O)(P(=O)([O-])O)P(=O)(O)O (single isomer, unassigned) [Compound 583] | 50 µM | 14 µM |  |
| CC([n+]1ccccc1)C(O)(P(=O)([O-])O)P(=O)(O)O (single isomer, unassigned) [Compound 591] |  | 38 µM | IC50 [3, 6]: 29 µM |
| O=P([O-])(O)C(O)(C[n+]1cccc(-c2cccc(-c3ccccc3)c2)c1)P(=O)(O)O (centres unmarked) [Compound 364] | > 1000 µM |  | EC50 [1, 7]: > 1000 µM; IC50 [3, 6]: 37 µM |
| O=P([O-])(O)C(O)(C[n+]1ccc2ccccc2c1)P(=O)(O)O (centres unmarked) [Compound 398] | 41 µM | 20 µM | EC50 [1, 7]: 41 µM; EC50 [1, 8]: 40.6 µM; IC50 [2, 9]: 20 µM |
| O=P([O-])(O)C(O)(C[n+]1ccc(Cc2ccccc2)cc1)P(=O)(O)O (centres unmarked) [Compound 443] | 230 µM | 12 µM | activity in gammadelta T cell stimulation ([1]; TNF-α release): poor activity; EC50 [1, 7]: 230 µM; EC50 [1, 8]: 187 µM; IC50 [2, 9]: 12 µM |
| CCc1ccc[n+](CC(O)(P(=O)([O-])O)P(=O)(O)O)c1 (centres unmarked) [Compound 444] | 5.1 µM | 5.6 µM | EC50 [1, 7]: 5.1 µM; EC50 [1, 8]: 2.8 µM; IC50 [2, 9]: 5.6 µM |
| O=P([O-])(O)C(O)(C[n+]1cccc2cc(Cl)ccc21)P(=O)(O)O (centres unmarked) [Compound 447] | 53 µM | 72 µM | EC50 [1, 7]: 53 µM; IC50 [2, 9]: 72 µM |
| O=P([O-])(O)C(O)(C[n+]1cccc(-c2ccc(C(F)(F)F)cc2)c1)P(=O)(O)O (centres unmarked) [Compound 449] | 12 µM | 4 µM |  |
| CN(C)c1cc[n+](CC(O)(P(=O)([O-])O)P(=O)(O)O)cc1 (centres unmarked) [Compound 451] |  | 31 µM | (3) gammadelta T cell stimulation EC50 ([1]; Table 4): inactive; IC50 [3, 6]: 280 µM |
| Cc1ccc2c(ccc[n+]2CC(O)(P(=O)([O-])O)P(=O)(O)O)c1 (centres unmarked) [Compound 452] | 250 µM | 73 µM |  |
| O=P([O-])(O)C(O)(CC[n+]1ccccc1)P(=O)(O)O (centres unmarked) [Compound 455] | 25 µM | 27 µM |  |
| COc1cc[n+](CC(O)(P(=O)([O-])O)P(=O)(O)O)cc1 (centres unmarked) [Compound 456] | 19 µM | 27 µM |  |
| Cc1ccc2ccc[n+](CC(O)(P(=O)([O-])O)P(=O)(O)O)c2c1 (centres unmarked) [Compound 457] | 1900 µM | 14 µM |  |
| Cc1cc(C)c[n+](CC(O)(P(=O)([O-])O)P(=O)(O)O)c1 (centres unmarked) [Compound 459] | 14 µM | 27 µM |  |
| Cc1cc[n+](CC(O)(P(=O)([O-])O)P(=O)(O)O)cc1C (centres unmarked) [Compound 460] | 13 µM | 14 µM |  |
| O=P([O-])(O)C(O)(C[n+]1cccc(-c2ccc(F)cc2)c1)P(=O)(O)O (centres unmarked) [Compound 462] | 15 µM | 2.7 µM |  |
| O=P([O-])(O)C(C[n+]1ccccc1)P(=O)(O)O (centres unmarked) [Compound 470] |  | 3.5 µM | EC50 [1, 8]: 3.3 µM |
| O=P([O-])(O)C(O)(C[n+]1ccc(-c2ccncc2)cc1)P(=O)(O)O (centres unmarked) [Compound 471] |  |  | (3) gammadelta T cell stimulation EC50 ([1]; Table 4): inactive; (1) D. discoideum IC50 ([2]; Table 4): inactive |
| O=P([O-])(O)C(C[n+]1cccc(-c2ccccc2)c1)P(=O)(O)O (centres unmarked) [Compound 472] |  | 2.5 µM | EC50 [1, 8]: 2.1 µM |
| O=P([O-])(O)C(C[n+]1ccc2ccccc2c1)P(=O)(O)O (centres unmarked) [Compound 473] |  | 20 µM | EC50 [1, 8]: 20.1 µM |

| SMILES | EC50 [1, 4] | IC50 [2, 5] | other results |
| --- | --- | --- | --- |
| Cc1ccc[n+](CC(P(=O)([O-])O)P(=O)(O)O)c1 (centres unmarked) [Compound 474] |  | 4.4 µM | EC50 [1, 8]: 2.4 µM |
| CCc1ccc[n+](CC(P(=O)([O-])O)P(=O)(O)O)c1 (centres unmarked) [Compound 475] |  | 4.1 µM | EC50 [1, 8]: 2.8 µM |
| CCCCc1ccc[n+](CC(P(=O)([O-])O)P(=O)(O)O)c1 (centres unmarked) [Compound 476] |  | 2.3 µM | EC50 [1, 8]: 2 µM |
| O=P([O-])(O)C(C[n+]1cccc(F)c1)P(=O)(O)O (centres unmarked) [Compound 477] |  | 2.7 µM | EC50 [1, 8]: 1.8 µM; IC50 [3, 6]: 1.4 µM |
| O=P([O-])(O)C(O)(C[n+]1ccc(-c2ccccc2)cc1)P(=O)(O)O (centres unmarked) [Compound 478] |  | 760 µM | (3) gammadelta T cell stimulation EC50 ([1]; Table 4): inactive |
| COc1ccc[n+](CC(O)(P(=O)([O-])O)P(=O)(O)O)c1 (centres unmarked) [Compound 479] | 15 µM |  |  |
| O=P([O-])(O)C(C[n+]1cccc(Cc2ccccc2)c1)P(=O)(O)O (centres unmarked) [Compound 480] |  | 3 µM | EC50 [1, 8]: 68.7 µM |
| O=P([O-])(O)C(C[n+]1ccc(Cc2ccccc2)cc1)P(=O)(O)O (centres unmarked) [Compound 481] |  | 3.5 µM | EC50 [1, 8]: 83.4 µM |
| O=P([O-])(O)C(C[n+]1cccc(Br)c1)P(=O)(O)O (centres unmarked) [Compound 483] |  |  | EC50 [1, 10]: 2.9 µM; IC50 [2, 11]: 2.5 µM |
| O=P([O-])(O)C(O)(C[n+]1cccc(Br)c1)P(=O)(O)O (centres unmarked) [Compound 484] |  |  | EC50 [1, 10]: 4.6 µM; IC50 [2, 11]: 3.5 µM; IC50 [3]: 2.5 µM |
| O=P([O-])(O)C(C[n+]1ccc(C(F)(F)F)cc1)P(=O)(O)O (centres unmarked) [Compound 485] | 370 µM | 58 µM |  |
| O=P([O-])(O)C(C[n+]1cccc(S(=O)(=O)N2CCCC2)c1)P(=O)(O)O (centres unmarked) [Compound 502] |  | 100 µM | (3) gammadelta T cell stimulation EC50 ([1]; Table 4): inactive |
| O=P([O-])(O)C(C[n+]1cccc(C(F)(F)F)c1)P(=O)(O)O (centres unmarked) [Compound 511] | 14 µM | 4.1 µM | IC50 [3, 6]: 2.5 µM |
| O=P([O-])(O)C(O)(C[n+]1ccc(C(F)(F)F)cc1)P(=O)(O)O (centres unmarked) [Compound 513] | 550 µM | 1500 µM |  |
| O=P([O-])(O)C(O)(C[n+]1cccc(C(F)(F)F)c1)P(=O)(O)O (centres unmarked) [Compound 520] |  |  | EC50 [1, 12]: 14 µM; IC50 [2, 11]: 6.3 µM |
| O=P([O-])(O)C(C[n+]1ccccc1F)P(=O)(O)O (centres unmarked) [Compound 521] | 790 µM | 570 µM |  |
| O=P([O-])(O)C(C[n+]1cc(F)cc(F)c1)P(=O)(O)O (centres unmarked) [Compound 523] | 11 µM | 4.6 µM |  |
| O=P([O-])(O)C(O)(C[n+]1cccc(Cl)c1)P(=O)(O)O (centres unmarked) [Compound 524] |  |  | EC50 [1, 12]: 10 µM; IC50 [2, 11]: 2.4 µM |
| O=Cc1ccc[n+](CC(P(=O)([O-])O)P(=O)(O)O)c1 (centres unmarked) [Compound 525] | 11 µM | 8.4 µM |  |
| O=P([O-])(O)C(C[n+]1cccc(Cl)c1)P(=O)(O)O (centres unmarked) [Compound 526] | 8.6 µM | 2.1 µM | IC50 [3, 6]: 1.2 µM |

| SMILES | EC50 [1, 4] | IC50 [2, 5] | other results |
| --- | --- | --- | --- |
| O=C(c1ccccc1)c1ccc[n+](CC(P(=O)([O-])O)P(=O)(O)O)c1 (centres unmarked) [Compound 530] | 6500 µM | 190 µM |  |
| O=P([O-])(O)C(C[n+]1ccc(-n2nnc3ccccc32)cc1)P(=O)(O)O (centres unmarked) [Compound 531] |  | 20 µM | (3) gammadelta T cell stimulation EC50 ([1]; Table 4): inactive |
| O=Cc1cccc(-c2ccc[n+](CC(P(=O)([O-])O)P(=O)(O)O)c2)c1 (centres unmarked) [Compound 532] | 41 µM | 4.1 µM |  |
| O=P([O-])(O)C(C[n+]1cccc(-c2ccc(F)c(F)c2)c1)P(=O)(O)O (centres unmarked) [Compound 533] | 19 µM |  |  |
| O=P([O-])(O)C(O)(C[n+]1cc(F)cc(-c2ccccc2)c1)P(=O)(O)O (centres unmarked) [Compound 534] | 16 µM |  |  |
| CP(=O)([O-])C(C[n+]1cccc(-c2ccccc2)c1)P(C)(=O)O (centres unmarked) [Compound 556] | 2300 µM |  | (1) D. discoideum IC50 ([2]; Table 4): inactive |
| CCCOc1cccc(-c2ccc[n+](CC(P(=O)([O-])O)P(=O)(O)O)c2)c1 (centres unmarked) [Compound 577] | 21 µM | 4.1 µM |  |
| COc1cccc(-c2ccc[n+](CC(P(=O)([O-])O)P(=O)(O)O)c2)c1 (centres unmarked) [Compound 578] | 20 µM | 4 µM |  |
| CCCCOc1cccc(-c2ccc[n+](CC(P(=O)([O-])O)P(=O)(O)O)c2)c1 (centres unmarked) [Compound 579] | 20 µM | 6 µM |  |
| O=P([O-])(O)C(O)(C[n+]1cccc(I)c1)P(=O)(O)O (centres unmarked) [Compound 582] |  | 3.5 µM | IC50 [3, 6]: 1.6 µM |
| CCCCOc1ccc(-c2ccc[n+](CC(P(=O)([O-])O)P(=O)(O)O)c2)cc1 (centres unmarked) [Compound 586] | 90 µM | 6 µM |  |
| CCCCC#Cc1ccc[n+](CC(P(=O)([O-])O)P(=O)(O)O)c1 (centres unmarked) [Compound 597] | 58 µM |  | IC50 [3, 6]: 1.9 µM |
| CCCCCCc1ccc[n+](CC(P(=O)([O-])O)P(=O)(O)O)c1 (centres unmarked) [Compound 598] | 35 µM | 1.7 µM |  |
| CC(C)=CCc1ccc[n+](CC(P(=O)([O-])O)P(=O)(O)O)c1 (centres unmarked) [Compound 599] | 69 µM | 1.7 µM |  |
| CCCCOc1ccc(-c2ccc[n+](CC(O)(P(=O)([O-])O)P(=O)(O)O)c2)cc1 (centres unmarked) [Compound 600] | 290 µM | 11 µM |  |
| CC(C)=CCCC(C)=CCc1ccc[n+](CC(P(=O)([O-])O)P(=O)(O)O)c1 (centres unmarked) [Compound 601] | 220 µM | 2.4 µM |  |
| CC(C)C#Cc1ccc[n+](CC(P(=O)([O-])O)P(=O)(O)O)c1 (centres unmarked) [Compound 602] | 18 µM | 2.04 µM |  |
| CC(C)CCc1ccc[n+](CC(P(=O)([O-])O)P(=O)(O)O)c1 (centres unmarked) [Compound 603] | 22 µM |  |  |
| CCCCCCCCc1ccc[n+](CC(P(=O)([O-])O)P(=O)(O)O)c1 (centres unmarked) [Compound 605] | 6 µM |  |  |
